According to patent US20260078120A1, “SUBSTITUTED PYRIDOPYRIMIDINONES” (MIRATI THERAPEUTICS, INC., priority 2022, published 2026):

Legend:
Type in all cases: cell-based
[1] = test system: MKN1 (PI3Kα E545K mutant) cells; assay: CellTiter-Glo 2.0 luminescent cell viability assay, 72 hours, MKN1 cells; settings: Homo sapiens, MKN-1; MKN1 (PI3Kα E545K mutant) cells, CellTiter-Glo, approximately 72 hours; read-out: MKN1 (E545K) Viability IC50
Protocol: This Example illustrates that exemplary compounds of the present invention decrease the viability of cells.
The ability of a compound of Formula (I) to decrease the viability of cells was measured using CellTiter-Glo 2.0 (CTG) Luminescent Cell Viability Assay (#G9241) obtained from Promega (Madison, WI).
To prepare assay plates for viability assays, cells were trypsinized, resuspended in fresh media, and viable cells were counted utilizing trypan blue exclusion. T47D, SKBR3, or MKN1 cells were seeded at 1000 cells in 30 μl per well in a solid white flat bottom 384 cell culture plate (Perkin Elmer #6007680) and incubated at 37° C. overnight.
Assay day 1, cells were dosed using an Echo Liquid Handler (Beckman Coulter) with compounds at a 10 um starting concentration and serially diluted (1:4) for a total of 10 concentrations. Cells were incubated for approximately 72 hours with the compounds (solubilized in DMSO) at 37° C. After 72 hours of treatment, cell plates were equilibrated to room temperature before adding 15 μl of CTG to each well, plates were then covered in aluminum foil to protect from light, incubated at room temperature for 30 minutes on a microtiter plate shaker, and luminescence readings were collected using a CLARIOstar microplate reader (BMG Labtech, Germany). Percent of vehicle control values were plotted as log (inhibitor) vs. response-Variable slope (four parameters) for curve fitting and IC50 values were determined using XLfit.

[2] = test system: MKN1 (PI3Kα E545K mutant) cells; assay: Inhibition of pAKT formation, alphaLISA SureFire Ultra AKT 1/2/3 (pS473), MKN1 cells; settings: Homo sapiens, MKN-1; MKN1 (PI3Kα E545K mutant) cells; inhibition of pAKT (pS473) formation; approximately one hour or 24 hours treatment; read-out: MKN1 (E545K) pAKT IC50
Protocol: The ability of a compound of Formula (I) to inhibit the formation of pAKT was measured using alphaLISA Surefire Ultra AKT 1/2/3 (pS473) Assay Kit (#ALSU-PAKT-B50K) was obtained from Perkin Elmer (Waltham, MA).
To prepare assay plates for pAKT alphaLISA assays, cells were trypsinized, resuspended in fresh media, and viable cells were counted utilizing trypan blue exclusion. Prior to seeding, cells were washed with PBS and resuspended in HBSS (Gibco, #14025092). T47D (12,000/w), SKBR3(12,000/w), or MKN1(24,000/w) cells were seeded at 12 μl per well in a solid white flat bottom 384 cell culture plate (Perkin Elmer #6007680).
Immediately after seeding, cells were dosed using an Echo Liquid Handler (Beckman Coulter) with compounds at a […] starting concentration and serially diluted (1:4) for a total of 10 concentrations. […] Cells were incubated with the compounds (solubilized in DMSO) for approximately one hour or 24 hours at 37° C. After one hour (or 24 hours) of treatment, cells were lysed with 3 μl of the 5× lysis buffer (provided and incubated at room temperature for 15 min on a microtiter plate shaker). Once cells were sufficiently lysed, 7.5 μl of the acceptor bead mix (made using the manufacturers recommended dilutions) was added to each well and left on the microtiter plate shaker for 1 min prior to incubating plates at room temperature for one hour, in the absence of light. After one hour of incubation with the acceptor bead mix, 7.5 μl of the donor bead mix (made using the manufacturers recommended dilutions) was added to each well and left on the microtiter plate shaker for 1 min prior to incubating plates at room temperature overnight in the absence of light. Plates were then imaged the following day using a CLARIOstar microplate reader (BMG Labtech, Germany).
Percent of control values were calculated by subtracting the average signal from the positive control (alpelisib) treated wells from all treated wells (including DMSO control wells) and then divided by the average signal from the vehicle DMSO treated control wells. Percent of vehicle control values were plotted as log (inhibitor) vs. response-Variable slope (four parameters) for curve fitting and IC50 values were determined using XLfit.
Key: N.D. =not determined

[3] = test system: SKBR3 (PI3Kα wild type) cells; assay: CellTiter-Glo 2.0 luminescent cell viability assay, 72 hours, SKBR3 cells; settings: Homo sapiens, SK-BR-3, 72 h, SKBR3 (PI3Kα wild type) cells, CellTiter-Glo, approximately 72 hours; read-out: SKBR3 (WT) Viability IC50
Procedure, shortened: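 Viability measured via CTG luminescence following roughly 72 hours of compound exposure at 37° C. Dosing used a 10 um starting concentration diluted 1:4 over 10 points; percent-of-vehicle data fitted with a variable-slope four-parameter model for IC50.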

[4] = test system: T47D (PI3Kα H1047R mutant) cells; assay: Inhibition of pAKT formation, alphaLISA SureFire Ultra AKT 1/2/3 (pS473), T47D cells; settings: Homo sapiens, T47D, T47D (PI3Kα H1047R mutant) cells; inhibition of pAKT (pS473) formation; approximately one hour or 24 hours treatment; read-out: T47D pAKT (H1047R mutant) IC50
Procedure, shortened: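 T47D cells (12,000/well) in HBSS were dosed with compound at 10 concentrations (10.4 μM top, 1:4 dilutions) for about 1 h or 24 h at 37 °C, then lysed. pS473 AKT was read by alphaLISA. Signals were normalized to alpelisib and DMSO controls, and IC50 came from a four-parameter fit.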

[5] = test system: T47D (PI3Kα H1047R mutant) cells; assay: CellTiter-Glo 2.0 luminescent cell viability assay, 72 hours, T47D cells; settings: Homo sapiens, T47D, 72 h, T47D (PI3Kα H1047R mutant) cells, CellTiter-Glo, approximately 72 hours; read-out: T47D (H1047R mutant) Viability IC50
Procedure, shortened: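 Cells seeded at 1000 per well overnight were dosed with a 10-concentration, 1:4 series starting at 10 µM and incubated ~72 h at 37° C. Viability was read by CellTiter-Glo 2.0 luminescence after 30 min at room temperature. IC50 came from four-parameter fits of percent vehicle control.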

[6] = test system: SKBR3 (PI3Kα wild type) cells; assay: Inhibition of pAKT formation, alphaLISA SureFire Ultra AKT 1/2/3 (pS473), SKBR3 cells; settings: Homo sapiens, SK-BR-3; Inhibition of pAKT in SKBR3 (PI3Kα wild type) cells; read-out: SKBR3 (WT) pAKT IC50 (nM) (H1047R mutant) IC50
Procedure, shortened: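 Cells seeded in HBSS (SKBR3 12,000/well, MKN1 24,000/well) and dosed immediately, 10-point 1:4 series from […], for about 1 h or 24 h at 37 °C. pAKT S473 by alphaLISA after lysis; signal normalised to alpelisib and DMSO controls, IC50 by four-parameter fit.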

Row | Structure (SMILES) | IC50 [1] | IC50 [2] | IC50 [3] | IC50 [4] | IC50 [5] | IC50 [6]
1 | Cc1cc(C(C)Nc2ccccc2C(=O)O)c2nc(N3Cc4ccccc4C3)c(C)c(=O)n2c1 (stereo not drawn) [Example 5-9, 2-((1-(2-(isoindolin-2-yl)-3,7-dimethyl-4-oxo-4H-pyrido[1,2-a]pyrimidin-9-yl)ethyl)amino)benzoic acid] | > 10 µM | 3.5 µM | > 10 µM | 0.021 µM | 0.43 µM | 683 nM
2 | Cc1cc(C(C)Nc2ccccc2C(=O)O)c2nc(OCc3ccccc3)cc(=O)n2c1 (stereo not drawn) [Example 9-3, 2-((1-(2-(benzyloxy)-7-methyl-4-oxo-4H-pyrido[1,2-a]pyrimidin-9-yl)ethyl)amino)benzoic acid] | 3.78 µM | > 10 µM | 4.77 µM | 0.129 µM | 4.45 µM | > 10000 nM
3 | Cc1cc(C(C)NC(=O)CCl)c2nc(N3CCCCC3)cc(=O)n2c1 (stereo not drawn) [Example 4-3, 2-chloro-N-(1-(7-methyl-4-oxo-2-(piperidin-1-yl)-4H-pyrido[1,2-a]pyrimidin-9-yl)ethyl)acetamide] | 6.14 µM | > 10 µM | 4.84 µM | > 10 µM | > 10 µM | > 10000 nM
4 | CC(Nc1ccccc1C(=O)O)c1cc(C2CC2)cn2c(=O)cc(N3CCCCC3)nc12 (stereo not drawn) [Example 5-3, 2-((1-(7-cyclopropyl-4-oxo-2-(piperidin-1-yl)-4H-pyrido[1,2-a]pyrimidin-9-yl)ethyl)amino)benzoic acid] | > 10 µM | > 10 µM | > 10 µM | 0.0321 µM | > 10 µM | 3540 nM
5 | Cc1cc(C(C)Nc2ccccc2C(F)(F)CO)c2nc(N3CCCCC3)cc(=O)n2c1 (stereo not drawn) [Example 3-20, 9-(1-((2-(1,1-difluoro-2-hydroxyethyl)phenyl)amino)ethyl)-7-methyl-2-(piperidin-1-yl)-4H-pyrido[1,2-a]pyrimidin-4-one] | > 10 µM | > 10 µM | > 10 µM | 1.12 µM | > 10 µM | > 10000 nM
6 | Cc1cc(C(C)Nc2ccc(Cl)nc2C(=O)O)c2nc(N3CCCCC3)cc(=O)n2c1 (stereo not drawn) [Example 3-19, 6-chloro-3-((1-(7-methyl-4-oxo-2-(piperidin-1-yl)-4H-pyrido[1,2-a]pyrimidin-9-yl)ethyl)amino)picolinic acid] | > 10 µM | 1.19 µM | > 10 µM | 0.0383 µM | 0.367 µM | 2800 nM
7 | CC(Nc1ccccc1C(=O)O)c1cccn2c(=O)cc(N3Cc4ccccc4C3)nc12 (stereo not drawn) [9-4, 2-((1-(2-(isoindolin-2-yl)-4-oxo-4H-pyrido[1,2-a]pyrimidin-9-yl)ethyl)amino)benzoic acid] | > 10 µM | > 10 µM | > 10 µM | 0.0259 µM | 9.97 µM | > 10000 nM
8 | CCc1cc(C(C)Nc2ccccc2C(=O)O)c2nc(N3CCCCC3)cc(=O)n2c1 (stereo not drawn) [Example 5-8, 2-((1-(7-ethyl-4-oxo-2-(piperidin-1-yl)-4H-pyrido[1,2-a]pyrimidin-9-yl)ethyl)amino)benzoic acid] | > 10 µM | > 10 µM | > 10 µM | 0.017 µM | 3.79 µM | > 10000 nM
9 | C=CC(=O)N(C)C(C)c1cc(C)cn2c(=O)cc(N3CCCCC3)nc12 (stereo not drawn) [Example 4-2, N-methyl-N-(1-(7-methyl-4-oxo-2-(piperidin-1-yl)-4H-pyrido[1,2-a]pyrimidin-9-yl)ethyl)acrylamide] | > 10 µM | > 10 µM | > 10 µM | > 10 µM | > 10 µM | > 10000 nM

The remaining lines, values ahead:

Row | IC50 [1] | IC50 [2] | IC50 [3] | IC50 [4] | IC50 [5] | IC50 [6] | Structure (SMILES)
10 | > 10 µM | > 10 µM | 9.3 µM | > 10 µM | > 10 µM | > 10000 nM | Cc1cc(C(C)Nc2ccccc2O)c2nc(N3CCCCC3)cc(=O)n2c1 (stereo not drawn) [Example 3-16, 9-(1-((2-hydroxyphenyl)amino)ethyl)-7-methyl-2-(piperidin-1-yl)-4H-pyrido[1,2-a]pyrimidin-4-one]
11 | > 10 µM | > 10 µM | > 10 µM | 0.0932 µM | > 10 µM | > 10000 nM | Cc1cc(C(C)Nc2ccccc2C(=O)O)c2nc(C3CC3)cc(=O)n2c1 (stereo not drawn) [6-2, 2-((1-(2-cyclopropyl-7-methyl-4-oxo-4H-pyrido[1,2-a]pyrimidin-9-yl)ethyl)amino)benzoic acid]
12 | > 10 µM | 3.06 µM | > 10 µM | 0.0109 µM | 0.731 µM | > 10000 nM | Cc1c(N2CCCCC2)nc2c(C(C)Nc3ccccc3C(=O)O)cccn2c1=O (stereo not drawn) [Example 5-11, 2-((1-(3-methyl-4-oxo-2-(piperidin-1-yl)-4H-pyrido[1,2-a]pyrimidin-9-yl)ethyl)amino)benzoic acid]
13 | > 10 µM | > 10 µM | > 10 µM | > 10 µM | > 10 µM | 8030 nM | COc1ccc(C(=O)O)c(NC(C)c2cc(C)cn3c(=O)cc(N4CCCCC4)nc23)c1 (stereo not drawn) [Example 3-7, 4-methoxy-2-((1-(7-methyl-4-oxo-2-(piperidin-1-yl)-4H-pyrido[1,2-a]pyrimidin-9-yl)ethyl)amino)benzoic acid]
14 | > 10 µM | > 10 µM | > 10 µM | 3 µM | > 10 µM | > 10000 nM | Cc1cc(C(C)Nc2cc(O)ccc2C(=O)O)c2nc(N3CCCCC3)cc(=O)n2c1 (stereo not drawn) [Example 3-8, 4-hydroxy-2-((1-(7-methyl-4-oxo-2-(piperidin-1-yl)-4H-pyrido[1,2-a]pyrimidin-9-yl)ethyl)amino)benzoic acid]
